Measured values published in patent US20250127843A1, “ADRENOCORTICOTROPIC HORMONE PEPTIDE COMPOSITIONS AND METHODS OF USE” (FERRING B.V., priority 2021, published 2025).
No end group written: not given here.

What was measured:
[1] = Stability of the peptide in aqueous test formulations: change in impurity content by UPLC after storage; type: physicochemical; details: for Δ Total impurities (difference in % (w/w) of impurities from Day 0 to Day 14) / Δ impurity at retention time 1.293 min (difference in % (w/w) of impurities from Day 0 to Day 14) / Δ impurity at retention time 4.923 min (difference in % (w/w) of impurities from Day 0 to Day 14) / Δ impurity at retention time 5.821 min (difference in % (w/w) of impurities from Day 0 to Day 14) / Δ impurity at retention time 6.267 min (difference in % (w/w) of impurities from Day 0 to Day 14) / Δ impurity at retention time 7.268 min (difference in % (w/w) of impurities from Day 0 to Day 14) / Δ impurity at retention time 10.47 min (difference in % (w/w) of impurities from Day 0 to Day 14): UPLC
Protocol: The effect of methionine on the stability of the peptide in an aqueous composition was evaluated. Test formulations of the peptide (1 mg/ml) in aqueous acetate buffer at pH 5.5 were prepared with or without methionine (1 mg/ml).
The effect of pH on the stability of the peptide in an aqueous composition was evaluated. Test formulations of the peptide in water (1 mg/ml) were prepared at a pH of 4.5, 5.0 or 5.5 using an acetate buffer. […]

PCNA = details: cited from earlier work
[2] = system: membranes of the basal ganglia and cerebral cortex; details: cited from earlier work
Bcl-2 = details: cited from earlier work
[3] = system: nuclear membranes of nerve cells of the basal forebrain, hippocampus and cerebellum; details: cited from earlier work
[4] = system: cerebellar granule neurons; details: during glutamate neurotoxicity; cited from earlier work
BDNF and NGF genes = details: cited from earlier work
[5] = system: damaged cells under conditions of oxidative stress; details: oxidative stress caused by short-term incubation with hydrogen peroxide; cited from earlier work
[6] = peptide 1 mg/ml in water, acetate buffer pH 4.5, 14 days at 60° C.
[7] = peptide 1 mg/ml in water, acetate buffer pH 5.0, 14 days at 60° C.
[8] = peptide 1 mg/ml, aqueous acetate buffer pH 5.5, 14 days at 60° C.

MEHFPGP [Peptide, Met-Glu-His-Phe-Pro-Gly-Pro]
stability of the peptide as a function of pH ([1]; pH 4.5, 5.0 or 5.5 acetate buffer, 14 days at 60° C.): most stable at pH 4.5 | Δ Total impurities (difference in % (w/w) of impurities from Day 0 to Day 14) [1, 6]: 2.55 % (w/w) | Δ impurity at retention time 1.293 min (difference in % (w/w) of impurities from Day 0 to Day 14) [1, 6]: 0.3 % (w/w) | Δ impurity at retention time 4.923 min (difference in % (w/w) of impurities from Day 0 to Day 14) [1, 6]: 1.43 % (w/w) | Δ impurity at retention time 5.821 min (difference in % (w/w) of impurities from Day 0 to Day 14) [1, 6]: 0.28 % (w/w) | Δ impurity at retention time 6.267 min (difference in % (w/w) of impurities from Day 0 to Day 14) [1, 6]: 0 % (w/w) | Δ impurity at retention time 7.268 min (difference in % (w/w) of impurities from Day 0 to Day 14) [1, 6]: 0.28 % (w/w) | Δ impurity at retention time 10.47 min (difference in % (w/w) of impurities from Day 0 to Day 14) [1, 6]: 0.1 % (w/w) | Δ Total impurities (difference in % (w/w) of impurities from Day 0 to Day 14) [1, 7]: 4.07 % (w/w) | Δ impurity at retention time 1.293 min (difference in % (w/w) of impurities from Day 0 to Day 14) [1, 7]: 0.55 % (w/w) | Δ impurity at retention time 4.923 min (difference in % (w/w) of impurities from Day 0 to Day 14) [1, 7]: 2.58 % (w/w) | Δ impurity at retention time 5.821 min (difference in % (w/w) of impurities from Day 0 to Day 14) [1, 7]: 0.12 % (w/w) | Δ impurity at retention time 6.267 min (difference in % (w/w) of impurities from Day 0 to Day 14) [1, 7]: 0.11 % (w/w) | Δ impurity at retention time 7.268 min (difference in % (w/w) of impurities from Day 0 to Day 14) [1, 7]: 0.28 % (w/w) | Δ impurity at retention time 10.47 min (difference in % (w/w) of impurities from Day 0 to Day 14) [1, 7]: 0.24 % (w/w) | Δ Total impurities (difference in % (w/w) of impurities from Day 0 to Day 14) [1, 8]: 8.49 % (w/w) | Δ impurity at retention time 1.293 min (difference in % (w/w) of impurities from Day 0 to Day 14) [1, 8]: 1.19 % (w/w) | Δ impurity at retention time 4.923 min (difference in % (w/w) of impurities from Day 0 to Day 14) [1, 8]: 5.58 % (w/w) | Δ impurity at retention time 5.821 min (difference in % (w/w) of impurities from Day 0 to Day 14) [1, 8]: 0.1 % (w/w) | Δ impurity at retention time 6.267 min (difference in % (w/w) of impurities from Day 0 to Day 14) [1, 8]: 0.27 % (w/w) | Δ impurity at retention time 7.268 min (difference in % (w/w) of impurities from Day 0 to Day 14) [1, 8]: 0.31 % (w/w) | Δ impurity at retention time 10.47 min (difference in % (w/w) of impurities from Day 0 to Day 14) [1, 8]: 0.84 % (w/w) | expression of the nuclear protein PCNA (PCNA): significant increase in the expression | specific binding to membranes [2]: specifically bind to the membranes of the basal ganglia and cerebral cortex | levels of Bcl-2 (Bcl-2): increase levels of Bcl-2 | binding to nuclear membranes of nerve cells [3]: bind to the nuclear membranes of nerve cells of the basal forebrain, hippocampus and cerebellum | survival of cerebellar granule neurons [4]: significantly increase the survival | transcription of the neurotrophin BDNF and NGF genes (BDNF and NGF genes): rapid induction of the transcription | number of damaged cells [5]: reduce the number of damaged cells
